Assay results: patent publication US20240350489A1, “LOU064 FOR TREATING MULTIPLE SCLEROSIS” (NOVARTIS AG, priority 2021, published 2024)
Entries after “also recorded” stand apart in the source; their conditions may differ.

Experiments:
BTK [1] = biological target: T1, BTK (Rattus norvegicus, UniProt Q5S255); details: female rats, single oral dose of 3 mg/kg; cited from earlier work
T1 construct: from tissue; host or cells: blood and spleen of female rats

[2] = Phase 2b dose range finding core study in CSU subjects, safety; details: for overall tolerability / safety profile: whole dose range
Procedure: In a Phase 2b, randomized, double-blind, placebo-controlled trial evaluating the efficacy and safety of LOU064 over 12 weeks in patients inadequately controlled by Hi-antihistamines, with at least moderately active CSU, patients received LOU064 10 mg q.d. (once daily), 35 mg q.d., 100 mg q.d., 10 mg b.i.d. (twice daily), 25 mg b.i.d., 100 mg b.i.d., or placebo (1:1:1:1:1:1:1 ratio).
In a dose range finding study conducted in CSU subjects the following doses are being tested: 10, 35 and 100 mg q.d. as well as 10, 25 and 100 mg b.i.d. and placebo over 12 weeks.

[3] = tested on: MOG-specific immunoglobulin responses; experiment: MOG-specific immunoglobulin responses in serum, HumanMOG EAE; assay type: in vivo, mouse; details: oral b.i.d. treatment
From the text: In the HumanMOG-induced EAE model the (auto)antibody response is weakly pathogenic.

BTK [4] = biological target: T2, BTK (Mus musculus, UniProt P35991); experiment: Trough BTK occupancy in spleen, blood and brain, RatMOG EAE; assay type: in vivo; details: 30 mg/kg b.i.d., 16 h after the last dose
T2 construct: BTK occupancy was assessed in brain homogenates that had been prepared for compound exposure analysis; from tissue; host or cells: spleen, inguinal lymph nodes, blood and brain homogenate of C57BL/6 EAE mice
T2 sequence (P35991 whole entry): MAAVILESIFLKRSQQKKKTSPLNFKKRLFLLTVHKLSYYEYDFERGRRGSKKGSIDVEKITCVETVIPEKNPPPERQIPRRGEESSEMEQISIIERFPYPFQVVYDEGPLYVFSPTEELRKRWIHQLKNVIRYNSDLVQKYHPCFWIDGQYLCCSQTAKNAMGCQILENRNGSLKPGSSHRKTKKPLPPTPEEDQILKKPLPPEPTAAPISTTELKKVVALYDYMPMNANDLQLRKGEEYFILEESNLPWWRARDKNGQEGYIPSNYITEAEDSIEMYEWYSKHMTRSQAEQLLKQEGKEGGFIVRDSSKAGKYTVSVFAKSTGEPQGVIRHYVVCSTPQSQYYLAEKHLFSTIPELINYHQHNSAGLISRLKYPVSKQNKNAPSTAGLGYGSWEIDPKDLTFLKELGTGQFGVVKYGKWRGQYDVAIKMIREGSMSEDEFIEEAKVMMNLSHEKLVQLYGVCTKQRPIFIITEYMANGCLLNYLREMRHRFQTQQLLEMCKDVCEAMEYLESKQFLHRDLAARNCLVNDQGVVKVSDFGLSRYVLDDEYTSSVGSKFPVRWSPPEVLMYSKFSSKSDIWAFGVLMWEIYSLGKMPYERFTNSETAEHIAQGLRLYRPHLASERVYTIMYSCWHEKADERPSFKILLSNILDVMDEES

[5] = tested on: B-cell and CD4+ T-cell populations; experiment: Ex vivo analysis of B-cell and CD4+ T-cell populations, HumanMOG EAE; set-up: species or system mouse; details: dosed in vivo b.i.d.
From the text: Prophylactic LOU064 (b.i.d.) treatment during HumanMOG EAE reduces Th17 cells. […] Group sizes n=5 per treatment. Statistical significance (ANOVA with Dunnett's test) is shown as *p<0.05.

[6] = tested on: splenocytes and draining lymph node cells; experiment: Ex vivo MOG-induced recall proliferation, HumanMOG EAE; set-up: species or system mouse; details: dosed in vivo
Procedure: Prophylactic LOU064 (b.i.d.) treatment during HumanMOG EAE inhibits (auto)antigen recall proliferation. Isolated splenocytes and draining lymph node cells were incubated in vitro with HumanMOG for 48 hours. Antigen-specific proliferation was determined by [^3H]-thymidine incorporation. […] Group sizes n=5 per treatment.
Ex vivo MOG-induced recall proliferation responses were studied using isolated splenocytes and draining lymph node cells collected on day 8 post-immunization. […] In contrast, plate-bound anti-CD3/CD28 polyclonal stimulation of lymph node cells was unaffected by the in vivo treatment.

[7] = core study, any LOU064 dose, listed as remibrutinib

T1 sequence (Q5S255 1-660): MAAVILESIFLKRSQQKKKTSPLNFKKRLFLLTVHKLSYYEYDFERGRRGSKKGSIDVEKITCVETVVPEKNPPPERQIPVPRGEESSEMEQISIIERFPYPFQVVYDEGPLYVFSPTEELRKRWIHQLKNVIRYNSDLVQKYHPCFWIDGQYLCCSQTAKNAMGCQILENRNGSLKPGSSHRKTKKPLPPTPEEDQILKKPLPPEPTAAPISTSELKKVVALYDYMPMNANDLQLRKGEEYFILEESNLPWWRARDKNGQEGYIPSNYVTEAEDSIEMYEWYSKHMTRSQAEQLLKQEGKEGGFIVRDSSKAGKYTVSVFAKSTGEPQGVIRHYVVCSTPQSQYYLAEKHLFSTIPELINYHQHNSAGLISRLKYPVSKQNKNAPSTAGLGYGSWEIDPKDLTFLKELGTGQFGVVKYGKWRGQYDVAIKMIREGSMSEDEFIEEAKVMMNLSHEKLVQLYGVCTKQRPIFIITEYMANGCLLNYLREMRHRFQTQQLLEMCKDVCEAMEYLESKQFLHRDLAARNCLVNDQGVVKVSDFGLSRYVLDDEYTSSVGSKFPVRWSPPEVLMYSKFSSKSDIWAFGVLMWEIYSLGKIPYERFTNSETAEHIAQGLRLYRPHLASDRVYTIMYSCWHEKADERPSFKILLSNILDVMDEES

## C=CC(=O)N(C)CCOc1c(N)ncnc1-c1cc(F)cc(NC(=O)c2ccc(C3CC3)cc2F)c1C [LOU064, N-(3-(6-amino-5-(2-(N-methylacrylamido)ethoxy)pyrimidin-4-yl)-5-fluoro-2-methylphenyl)-4-cyclopropyl-2-fluorobenzamide]
BTK [1]
  BTK occupancy in blood and spleen: full BTK occupancy
[2]; 10 mg q.d., Week 8, after starting a ketogenic diet
  Grade 3 creatinine elevation, patients: One
[2]; 35 mg q.d., Week 12
  Grade 3 neutrophil count decrease: one
[2]; 100 mg q.d., Week 8
  Grade 3 alanine transaminase elevation: one
[2]; core study
  deaths: no deaths
  laboratory findings, including blood cell counts: no significant laboratory findings
[2]; [7]
  AE Headache (PT): 9.7%
  AE Infections and infestations (SOC): 24.0%
  AE Skin and subcutaneous tissue disorders (SOC): 16.9%
[2]; core study, in total
  Common Terminology Criteria for AEs Grade 3 events (laboratory data): three
[2]; core study, normalised on treatment
  patients with ALT>5xULN: 1 patient
[2]
  overall tolerability / safety profile: well-tolerated across the whole dose range
[2]; listed as Remibrutinib
  overall tolerability / safety profile: favorable safety profile across the whole dose range
[3]
  MOG-specific IgG2c: No change was detected
  MOG-specific IgM and IgG responses in serum: significantly reduced
BTK [4]
  BTK occupancy in brain: intermediate levels; also recorded: only partial BTK occupancy in the brain
  BTK occupancy in spleen and blood: in a range indicative of maximal BTK occupancy; also recorded: full BTK occupancy in blood and spleen
[5]
  Th1 and Tregs: unchanged; also recorded: No changes were observed
  Th17 (IL-17+) cells: reduced; also recorded: significant reduction
  frequencies of B-cell populations: no significant changes in total B-cell populations
  total CD4+ T-cell population: unchanged
[6]; cells incubated with HumanMOG 48 hours
  MOG-specific proliferation ([3H]-thymidine incorporation): dose-dependent reduction in MOG-specific proliferation
[6]; lymph node cells
  polyclonal stimulation with anti-CD3/CD28: unchanged
